Changes are numbered by the printed parent chain. The source made the active and inactive calls. The rule behind the calls is not given here.

The values that follow come from ChEMBL document CHEMBL5579878, “Allosteric Activation of Protein Phosphatase 5 with Small Molecules” (J Med Chem, 2024).

For data set [1], the system named is T1, Serine/threonine-protein phosphatase 5 (Homo sapiens), P53041 [E428A].
T1 sequence (whole entry): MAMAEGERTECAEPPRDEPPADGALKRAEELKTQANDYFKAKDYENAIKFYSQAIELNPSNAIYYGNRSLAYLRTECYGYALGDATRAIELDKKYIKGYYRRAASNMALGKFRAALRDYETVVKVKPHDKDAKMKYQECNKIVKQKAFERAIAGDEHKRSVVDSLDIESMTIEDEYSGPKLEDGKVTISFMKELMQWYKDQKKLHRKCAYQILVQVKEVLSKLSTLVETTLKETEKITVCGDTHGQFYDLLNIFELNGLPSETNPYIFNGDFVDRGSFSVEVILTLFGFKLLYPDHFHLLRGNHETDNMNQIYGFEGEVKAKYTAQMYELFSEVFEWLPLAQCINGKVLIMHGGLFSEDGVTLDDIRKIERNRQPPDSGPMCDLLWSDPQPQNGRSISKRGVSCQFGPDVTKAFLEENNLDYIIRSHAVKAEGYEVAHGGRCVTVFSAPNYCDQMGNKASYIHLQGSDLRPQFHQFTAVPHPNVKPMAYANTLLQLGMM
Briefly: Activation of PP5 E428A mutant (unknown origin) using pNPP as substrate assessed as increase in phosphatase activity at 10 to 200 uM incubated for 30 mins by spectrophotometric analysis. To be noted: dose 10-200 µM.

The target of data set [2] is T2, Serine/threonine-protein phosphatase 5 (Homo sapiens, UniProt P53041).
T2 sequence (P53041 whole entry): T1 sequence (whole entry) with A428E
Briefly: Activation of His-tagged human PP5 extracted from Escherichia coli BL21 using pNPP as substrate assessed as increase in phosphatase activity incubated for 30 mins by spectrophotometric analysis.

Data set [3] addresses Serine/threonine-protein phosphatase 5 (Homo sapiens, UniProt P53041, K430A). Briefly: Binding affinity to PP5 K430A mutant (unknown origin) assessed as dissociation constant by ITC analysis. Background: Isothermal titration calorimetry measures the heat released or taken up as one component is titrated into another.
The subject of data set [4] is HCT-116. Briefly: Effect on AT13387-induced HSF1 expression in human HCT-116 cells at 50 uM incubated for 24 hrs by Western blot analysis. The format is functional, cell-based. (In general: Immunoblotting shows a protein as a band on a membrane.)
Data set [5] addresses T3, Low molecular weight phosphotyrosine protein phosphatase (Homo sapiens) (UniProt P24666).
T3 sequence (whole entry): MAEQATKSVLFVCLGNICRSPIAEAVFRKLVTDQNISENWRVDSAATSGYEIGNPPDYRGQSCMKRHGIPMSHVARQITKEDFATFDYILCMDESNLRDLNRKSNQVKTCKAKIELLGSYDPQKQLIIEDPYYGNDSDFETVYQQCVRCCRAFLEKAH
Briefly: Inhibition of LMPTP-A (unknown origin) using DiFMUP as substrate at 0.01 to 1000 uM. The settings on record: dose 0.01-1000 µM.

The subject of the next data set is SW-620. Briefly: Enhancement of HSP90 inhibitor AT13387-induced antiproliferative activity against human SW620 cells assessed as fold change in HSP90 inhibitor AT13387 IC50 at 50 uM incubated for 72 hrs by CCK8 assay. Format: functional. (Tetrazolium assays rely on reduction of a dye to a coloured formazan, in cell work by metabolically active cells.)
The test system of data set [6] is HCT-116. Briefly: Downregulation of AT13387-induced HSP40 expression in human HCT-116 cells at 50 uM incubated for 24 hrs by Western blot analysis. The format is functional, cell-based.
The test system of data set [7] is HCT-116. Briefly: Effect on HSP70 expression level in human HCT-116 cells at 1 to 100 uM incubated for 24 hrs by Western blot analysis. Format: functional, cell-based. To be noted: dose 1-100 µM.
The target of data set [8] is T4, Hsp90 co-chaperone Cdc37 (Homo sapiens) (UniProt Q16543).
T4 sequence (whole entry): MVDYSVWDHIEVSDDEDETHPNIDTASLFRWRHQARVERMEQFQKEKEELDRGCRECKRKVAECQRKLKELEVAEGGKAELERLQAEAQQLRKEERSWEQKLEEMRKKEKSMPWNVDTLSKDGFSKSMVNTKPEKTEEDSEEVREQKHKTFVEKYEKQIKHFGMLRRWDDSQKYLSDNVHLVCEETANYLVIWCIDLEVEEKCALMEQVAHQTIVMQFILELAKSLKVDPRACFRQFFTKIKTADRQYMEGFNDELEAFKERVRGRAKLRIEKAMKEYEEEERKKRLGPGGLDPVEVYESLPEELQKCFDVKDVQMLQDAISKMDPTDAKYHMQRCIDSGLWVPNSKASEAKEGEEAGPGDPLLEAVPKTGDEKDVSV
Briefly: Induction of CDC37 dephosphorylation at S13 residue in PP5-KO human HCT-116 cells upto 100 uM incubated for 24 hrs by Western blot analysis. The format is cell-based.

In data set [9] the target is T5, Serine/threonine-protein phosphatase 5 (Homo sapiens) (UniProt P53041).
T5 sequence (whole entry): T1 sequence (whole entry) with A428E
Briefly: Activation of PP5 in human HCT-116 cells assessed as decrease in intracellular S13 residue phosphorylated CDC37 level incubated for 24 hrs by Western blot analysis. Format: cell-based. To be noted: filed as activator, dose <= 100.0 µM.

A short description of data set [10]: Half-life in Sprague-Dawley rat at 10 mg/kg, ip measured after 8 hrs by LC-MS/MS analysis. The format is ADME, organism-based. To be noted: in vivo.
The nature of data set [11]: Toxicity in BALB/c nude mouse xenografted with human HCT-116 cells assessed as body weight loss at 30 to 60 mg/kg, ip administered every other day for 14 days in presence of AT13387. The format is organism-based. The settings on record: in vivo, 336 h, dose 30-60 mg/kg, time 14 day.

Chain of Serine/threonine-protein phosphatase 5 (Homo sapiens, UniProt P53041, K430A) (P53041 2-499 K430A limits assumed): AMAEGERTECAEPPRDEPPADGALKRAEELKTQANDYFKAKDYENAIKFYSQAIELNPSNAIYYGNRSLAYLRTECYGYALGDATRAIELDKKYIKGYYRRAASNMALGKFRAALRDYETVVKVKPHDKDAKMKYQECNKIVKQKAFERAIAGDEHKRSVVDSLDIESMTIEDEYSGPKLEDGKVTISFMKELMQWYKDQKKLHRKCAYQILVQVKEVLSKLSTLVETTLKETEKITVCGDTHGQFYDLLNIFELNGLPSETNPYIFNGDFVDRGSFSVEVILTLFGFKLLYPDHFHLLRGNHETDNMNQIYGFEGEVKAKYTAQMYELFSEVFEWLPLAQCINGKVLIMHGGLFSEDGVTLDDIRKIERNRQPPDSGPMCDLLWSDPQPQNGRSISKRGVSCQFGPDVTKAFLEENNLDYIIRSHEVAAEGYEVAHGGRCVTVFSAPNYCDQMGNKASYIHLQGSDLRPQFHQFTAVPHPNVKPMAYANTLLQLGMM

What is called EC50 is the concentration needed to bring the measured effect to its halfway point. Usually Kd stands for the concentration at which binding is half-saturated. In general, half-life refers to the time in which the quantity being followed falls by half. As for `N=c1oc2cc(F)cc(F)c2cc1C(N)=S`, the result (in [1]; with HCT-116 [4]; with HCT-116 [7]; in data set [8]) was inactive. Besides, in data set [2], the EC50 turned out to be 52.8 µM. Besides, the Kd in [3] was 37.2 µM. Besides, the inhibition entry in [5] was “inactive”. Also, the “fold change (FC)” value with SW-620 came to 2. Further, in the data set on HCT-116 [6], the result was Active. Besides, the Activity entry is “Dose-Dependent Effect” in data set [9] and “Non-Toxic” in [11]. Further, the half-life in data set [10] was 1.59 h.
